The target in assay [1] is human arginase II (ARG II) (Homo sapiens (Human), UniProt P78540). Kind of assay: Inhibition of arginase II, spectrophotometric urea assay at 530 nm. The note with it: potency rank 1-5; pH 7.4, 37° C., 60 minutes. The format is biochemical. The method, then:
(§1) Inhibition of arginase I (ARG I) and arginase II (ARG II) by Formula I or Formula II compounds is followed spectrophotometrically at 530 nm. The compound to be tested was dissolved in DMSO at an initial concentration 50-fold greater than its final concentration in the cuvette. 10 μl of the stock solution was diluted in 90 μl of the assay buffer that comprises 0.1M sodium phosphate buffer containing 130 mM NaCl, pH 7.4, to which is added ovalbumin (OVA) at a concentration of 1 mg/ml. Solutions of arginase I and II were prepared in 100 mM sodium phosphate buffer, pH 7.4 containing 1 mg/ml of OVA to give an arginase stock solution at a final concentration of 100 ng/ml.
(§2) To each well of a 96-well microtiter plate was added 40 μl of enzyme, 10 μl of an inventive compound and 10 μl of enzyme substrate (L-arginine+manganese sulfate). For wells that were used as positive controls, only the enzyme and its substrate were added, while wells used as negative controls contained only manganese sulfate.
(§3) After incubating the microtiter plate at 37° C. for 60 minutes, 150 μl of a urea reagent obtained by combining equal proportions (1:1) of reagents A and B is added to each well of the microtiter plate to stop the reaction. The urea reagent is made just before use by combining Reagent A (10 mM o-phthaldialdehyde, and 0.4% polyoxyethylene (23) lauryl ether (w/v) in 1.8 M sulfuric acid) with Reagent B (1.3 mM primaquine diphosphate, 0.4% polyoxyethylene (23) lauryl ether (w/v), 130 mM boric acid in 3.6 mM sulfuric acid). After quenching the reaction mixture, the microtiter plate is allowed to stand for an additional 10 minutes at room temperature to allow the color to develop. The inhibition of arginase was computed by measuring the optical density (OD) of the reaction mixture at 530 nm and normalizing the OD value to percent inhibition observed in the control. The normalized OD is then used to generate a dose-response curve by plotting the normalized OD values against log [concentration] and using regression analysis to compute the IC50 values.

The target of the next assay is human arginase I (ARG I) (Homo sapiens (Human), UniProt P05089). Put plainly: Inhibition of arginase I, spectrophotometric urea assay at 530 nm. It is filed as biochemical. The conditions noted are these: potency rank 1-5; pH 7.4, 37° C., 60 minutes. The method, then:
as §1, §2, §3

Structures are written as SMILES.

Usually IC50 stands for the midpoint of a concentration-inhibition curve.

human arginase II (ARG II), sequence (P78540 23-354): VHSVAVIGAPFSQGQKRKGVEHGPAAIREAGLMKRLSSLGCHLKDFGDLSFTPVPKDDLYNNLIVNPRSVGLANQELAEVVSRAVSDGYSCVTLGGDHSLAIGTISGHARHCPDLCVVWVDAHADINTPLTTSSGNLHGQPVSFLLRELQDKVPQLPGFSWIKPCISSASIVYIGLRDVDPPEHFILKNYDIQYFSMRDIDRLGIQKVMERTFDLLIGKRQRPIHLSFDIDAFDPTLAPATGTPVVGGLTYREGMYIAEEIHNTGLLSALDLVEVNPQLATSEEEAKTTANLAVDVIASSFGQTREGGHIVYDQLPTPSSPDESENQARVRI
human arginase I (ARG I), sequence (P05089 whole entry): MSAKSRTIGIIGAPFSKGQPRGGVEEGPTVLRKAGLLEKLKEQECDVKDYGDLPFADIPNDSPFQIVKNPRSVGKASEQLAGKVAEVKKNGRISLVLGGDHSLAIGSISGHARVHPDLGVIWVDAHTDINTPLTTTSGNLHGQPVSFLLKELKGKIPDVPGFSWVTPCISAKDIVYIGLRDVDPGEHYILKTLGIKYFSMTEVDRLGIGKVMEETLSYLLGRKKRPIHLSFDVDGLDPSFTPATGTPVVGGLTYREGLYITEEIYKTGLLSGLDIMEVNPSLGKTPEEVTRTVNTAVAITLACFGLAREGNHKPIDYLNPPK

Turning to `N[C@@]1(C(=O)O)CN(C(=O)C2Cc3ccccc3CN2)C[C@@H]1CCCB(O)O` (mixture of isomers) [Example 53, (3R,4S)-3-amino-4-(3-boronopropyl)-1-(1,2,3,4-tetrahydroisoquinoline-3-carbonyl)pyrrolidine-3-carboxylic acid], the IC50 in assay [1] lay within 251 to 1000 nM; at human arginase I (ARG I) it was 0.1 to 250 nM.

Consider `NC(Cc1ccc(C(F)(F)F)cc1)C(=O)N1C[C@H](CCCB(O)O)[C@](N)(C(=O)O)C1` (mixture of isomers) [Example 54, (3R,4S)-3-amino-1-(2-amino-3-(4-(trifluoromethyl)phenyl)propanoyl)-4-(3-boronopropyl)pyrrolidine-3-carboxylic acid], for which the values for the concentration for half-maximal inhibition (IC50) (in assay [1]; against human arginase I (ARG I)) were 1000 to 2000 nM and 251 to 1000 nM, respectively. As for `NC(Cc1ccccc1)CN1C[C@H](CCCB(O)O)[C@](N)(C(=O)O)C1` (mixture of isomers) [Example 57, (3R,4S)-3-amino-1-(2-amino-3-phenylpropyl)-4-(3-boronopropyl)pyrrolidine-3-carboxylic acid], the IC50 (in assay [1]; at human arginase I (ARG I)) was 0.1 to 250 nM each time. `N[C@@]1(C(=O)O)CCC[C@@H]1CCCB(O)O` (racemic) [Example 1, (1S,2S)-1-amino-2-(3-boronopropyl)cyclopentanecarboxylic acid]: the IC50 (in assay [1]; on human arginase I (ARG I)) was 251 to 1000 nM throughout. In the case of `N[C@@]1(C(=O)O)CN(C(=O)c2ccc(F)cc2)C[C@@H]1CCCB(O)O` (racemic) [Example 46, (3R,4S)-3-amino-4-(3-boronopropyl)-1-(4-fluorobenzoyl)pyrrolidine-3-carboxylic acid], the IC50 (in assay [1]; on human arginase I (ARG I)) was 251 to 1000 nM in each case. Turning to `N[C@@]1(C(=O)O)CN(C(=O)Nc2ccc(F)cc2)C[C@@H]1CCCB(O)O` (racemic) [Example 48, (3R,4S)-3-amino-4-(3-boronopropyl)-1-(4-fluorophenylcarbamoyl)pyrrolidine-3-carboxylic acid], the IC50 (in assay [1]; at human arginase I (ARG I)) was 251 to 1000 nM throughout. Take `N[C@@]1(C(=O)O)C[C@@H](NCc2ccccc2)C[C@@H]1CCCB(O)O` (racemic) [Example 62, (1S,2S,4S)-1-amino-4-(benzylamino)-2-(3-boronopropyl)cyclopentanecarboxylic acid]: the IC50 (in assay [1]; on human arginase I (ARG I)) was 0.1 to 250 nM throughout. With `CN(C)[C@H]1C[C@H](CCCB(O)O)[C@](N)(C(=O)O)C1` (racemic) [Example 63, (1S,2S,4S)-1-amino-2-(3-boronopropyl)-4-(dimethylamino)cyclopentanecarboxylic acid], the IC50 (in assay [1]; on human arginase I (ARG I)) was 0.1 to 250 nM each time. Turning to `NC[C@@H]1C[C@H](CCCB(O)O)[C@](N)(C(=O)O)C1` (racemic) [Example 64, (1S,2S,4R)-1-amino-4-(aminomethyl)-2-(3-boronopropyl)cyclopentanecarboxylic acid], the IC50 (in assay [1]; at human arginase I (ARG I)) was 0.1 to 250 nM each time. `NC[C@H]1C[C@H](CCCB(O)O)[C@](N)(C(=O)O)C1` (racemic) [Example 65, (1S,2S,4S)-1-amino-4-(aminomethyl)-2-(3-boronopropyl)cyclopentanecarboxylic acid]: the IC50 in assay [1] was in the range of 1000 to 2000 nM; at human arginase I (ARG I), 251 to 1000 nM.

Take `NCC[C@H]1C[C@H](CCCB(O)O)[C@](N)(C(=O)O)C1` (racemic) [Example 66, (1S,2S,4R)-1-amino-4-(2-aminoethyl)-2-(3-boronopropyl)cyclopentanecarboxylic acid]: the IC50 (in assay [1]; on human arginase I (ARG I)) was 0.1 to 250 nM in each case. For `N[C@@]1(C(=O)O)CCC[C@H]1CCCB(O)O` [Example 2, (1S,2R)-1-amino-2-(3-boronopropyl)cyclopentanecarboxylic acid], the IC50 (in assay [1]; on human arginase I (ARG I)) was over 5000 nM in each case. Take `N[C@@]1(C(=O)O)CCO[C@@H]1CCCB(O)O` [Example 3, (2R,3S)-3-amino-2-(3-boronopropyl)tetrahydrofuran-3-carboxylic acid]: the IC50 lay within 2000 to 5000 nM in assay [1] and 1000 to 2000 nM against human arginase I (ARG I). In the same order, the values of `N[C@@]1(C(=O)O)CCO[C@H]1CCCB(O)O` [Example 4, (2S,3S)-3-amino-2-(3-boronopropyl)tetrahydrofuran-3-carboxylic acid] are 0.1 to 250 nM and 0.1 to 250 nM. In the case of `NC1(C(=O)O)CCSC1CCCB(O)O` (stereo not shown) [Example 5, 3-amino-2-(3-boronopropyl)tetrahydrothiophene-3-carboxylic acid], the IC50 in assay [1] was in the range of 2000 to 5000 nM; on human arginase I (ARG I) it was 1000 to 2000 nM. The like results for `N[C@@]1(C(=O)O)CCNC[C@H]1CCCB(O)O` [Example 6, (3R,4S)-4-amino-3-(3-boronopropyl)piperidine-4-carboxylic acid] were, in that order, 2000 to 5000 nM and 251 to 1000 nM. As to `N[C@@]1(C(=O)O)CCNC[C@@H]1CCCB(O)O` [Example 7, (3S,4S)-4-amino-3-(3-boronopropyl)piperidine-4-carboxylic acid], the IC50 (in assay [1]; against human arginase I (ARG I)) was 251 to 1000 nM throughout.

With `N[C@@]1(C(=O)O)CNC[C@@H]1CCCB(O)O` [Example 8, (3R,4S)-3-amino-4-(3-boronopropyl)pyrrolidine-3-carboxylic acid], the IC50 (in assay [1]; against human arginase I (ARG I)) was 251 to 1000 nM in each case. `N[C@@]1(C(=O)O)CNC[C@H]1CCCB(O)O` [Example 9, (3R,4R)-3-amino-4-(3-boronopropyl)pyrrolidine-3-carboxylic acid]: the 50% inhibitory concentration (IC50) (in assay [1]; against human arginase I (ARG I)) was 1000 to 2000 nM throughout. For the molecule `N[C@@]1(C(=O)O)CCN[C@@H]1CCCB(O)O` [Example 10, (2R,3S)-3-amino-2-(3-boronopropyl)pyrrolidine-3-carboxylic acid], the IC50 (in assay [1]; against human arginase I (ARG I)) was over 5000 nM throughout.

For `CC(C)CN1C[C@H](CCCB(O)O)[C@](N)(C(=O)O)C1` [Example 11, (3R,4S)-3-amino-4-(3-boronopropyl)-1-isobutylpyrrolidine-3-carboxylic acid], the IC50 was 1000 to 2000 nM in assay [1] and 251 to 1000 nM against human arginase I (ARG I). For `N[C@@]1(C(=O)O)CN(Cc2ccccc2)C[C@@H]1CCCB(O)O` [Example 12, (3R,4S)-3-amino-1-benzyl-4-(3-boronopropyl)pyrrolidine-3-carboxylic acid], the IC50 in assay [1] is 1000 to 2000 nM; against human arginase I (ARG I), 251 to 1000 nM.

In the case of `N[C@@]1(C(=O)O)CN(Cc2cccnc2)C[C@@H]1CCCB(O)O` [Example 13, (3R,4S)-3-amino-4-(3-boronopropyl)-1-(pyridin-3-ylmethyl)pyrrolidine-3-carboxylic acid], the IC50 was 1000 to 2000 nM in assay [1] and 251 to 1000 nM on human arginase I (ARG I).

Consider `NC1CCCC1N1C[C@H](CCCB(O)O)[C@](N)(C(=O)O)C1` (stereo partly drawn) [Example 14, (3R,4S)-3-amino-1-(2-aminocyclopentyl)-4-(3-boronopropyl)pyrrolidine-3-carboxylic acid], for which the IC50 (in assay [1]; against human arginase I (ARG I)) was 0.1 to 250 nM each time. Take `N[C@@]1(C(=O)O)CN(CC2CCNCC2)C[C@@H]1CCCB(O)O` [Example 15]: the IC50 in assay [1] was 1000 to 2000 nM; on human arginase I (ARG I), 251 to 1000 nM. The like results for `N[C@@]1(C(=O)O)CN(CCCc2ccc(C(=O)O)cc2)C[C@@H]1CCCB(O)O` [Example 16, (3R,4S)-3-amino-4-(3-boronopropyl)-1-(3-(4-carboxyphenyl)propyl)pyrrolidine-3-carboxylic acid] were, in that order, 0.1 to 250 nM and 0.1 to 250 nM.

Turning to `CN(C)CC(C)(C)CN1C[C@H](CCCB(O)O)[C@](N)(C(=O)O)C1` [Example 17, (3R,4S)-3-amino-4-(3-boronopropyl)-1-(3-(dimethylamino)-2,2-dimethylpropyl)pyrrolidine-3-carboxylic acid], at human arginase I (ARG I), the IC50 was 2000 to 5000 nM. Regarding `N[C@@]1(C(=O)O)CN(CC2CCCNC2)C[C@@H]1CCCB(O)O` (stereo partly drawn) [Example 18, (3R,4S)-3-amino-4-(3-boronopropyl)-1-(piperidin-3-ylmethyl)pyrrolidine-3-carboxylic acid], the IC50 in assay [1] fell in the range of 251 to 1000 nM; against human arginase I (ARG I), 0.1 to 250 nM. Consider `N[C@@]1(C(=O)O)CN(Cc2ccnc3ccccc23)C[C@@H]1CCCB(O)O` [Example 19, (3R,4S)-3-amino-4-(3-boronopropyl)-1-(quinolin-4-ylmethyl)pyrrolidine-3-carboxylic acid], for which the IC50 (in assay [1]; on human arginase I (ARG I)) was 251 to 1000 nM each time. On to `N[C@@]1(C(=O)O)CN(Cc2c[nH]cn2)C[C@@H]1CCCB(O)O` [Example 20, (3R,4S)-1-((1H-imidazol-4-yl)methyl)-3-amino-4-(3-boronopropyl)pyrrolidine-3-carboxylic acid], for which the IC50 in assay [1] was 251 to 1000 nM; against human arginase I (ARG I), 0.1 to 250 nM. The like results for `N[C@@]1(C(=O)O)CN(CC2CCCCN2)C[C@@H]1CCCB(O)O` (stereo partly drawn) [Example 21, (3R,4S)-3-amino-4-(3-boronopropyl)-1-(piperidin-2-ylmethyl)pyrrolidine-3-carboxylic acid] were, in that order, 0.1 to 250 nM and 0.1 to 250 nM.

(Values after US10098902B2, “Arginase inhibitors as therapeutics” (Mars, Incorporated, priority 2010, dated 2018).)
